Laboratory results from publication PMC13210772, “Dual FLT3/MAPK14 Proteolysis-Targeting Chimera (PROTAC) Induces Potent Acute Myeloid Leukemia Cell Death” (Pharmaceuticals, 2026).

Legend:
STK17B = target: T1, STK17B (Homo sapiens, UniProt O94768); assay: NanoBRET CELLinib128; type: binding; details: 100% no effect, 0% complete tracer displacement, read-out: Tracer bound
T1 construct: Full-length kinase ORF (Promega, Madison, WI, USA) cloned in frame with a NanoLuc-vector was transfected into HEK293T cells; host or cells: HEK293T

SRC = SRC (Homo sapiens, UniProt P12931); assay: NanoBRET CELLinib128; details: read-out: Tracer bound
CSF1R = CSF1R (Homo sapiens, UniProt P07333); assay: NanoBRET CELLinib128; details: read-out: Tracer bound
EPHA1 = EPHA1 (Homo sapiens, UniProt P21709); assay: NanoBRET CELLinib128; details: read-out: Tracer bound
FYN = target: T2, FYN (Homo sapiens, UniProt P06241); assay: NanoBRET CELLinib128; type: binding; details: 100% no effect, 0% complete tracer displacement, read-out: Tracer bound
T2 construct: Full-length kinase ORF (Promega, Madison, WI, USA) cloned in frame with a NanoLuc-vector was transfected into HEK293T cells; host or cells: HEK293T

GSK3B = GSK3B (Homo sapiens, UniProt P49841); assay: NanoBRET CELLinib128; details: read-out: Tracer bound
RON = RON (Homo sapiens, UniProt Q04912); assay: NanoBRET CELLinib128; details: read-out: Tracer bound
ALK = ALK (Homo sapiens, UniProt Q9UM73); assay: NanoBRET CELLinib128; details: read-out: Tracer bound
ULK1 = target: T3, ULK1 (Homo sapiens, UniProt O75385); assay: NanoBRET CELLinib128; type: binding; details: 1 µM; 100% no effect, 0% complete tracer displacement
T3 construct: Full-length kinase ORF (Promega, Madison, WI, USA) cloned in frame with a NanoLuc-vector; host or cells: HEK293T
Outline: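 HEK293T cells are transfected with NanoLuc-fused full-length kinase and left 20 h to express. Compound at 1 μM and tracer are added and equilibrated 2 h at 37 °C. Filtered luminescence then yields BRET, expressed relative to tracer and background controls.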

MAPK14 = MAPK14 (Homo sapiens, UniProt Q16539); assay: NanoBRET CELLinib128; details: 1 µM; 100% no effect, 0% complete tracer displacement
IGF1R = IGF1R (Homo sapiens, UniProt P08069); assay: NanoBRET CELLinib128; details: read-out: Tracer bound
MOLM-13 = system: MOLM-13; design: method as in PMID 30427680, PMID 34959180, PMID 34694800, PMID 36332882, PMID 38655686; details: reported FLT3 PROTACs, Figure 1; cited from earlier work

RON, sequence (Q04912 25-1400): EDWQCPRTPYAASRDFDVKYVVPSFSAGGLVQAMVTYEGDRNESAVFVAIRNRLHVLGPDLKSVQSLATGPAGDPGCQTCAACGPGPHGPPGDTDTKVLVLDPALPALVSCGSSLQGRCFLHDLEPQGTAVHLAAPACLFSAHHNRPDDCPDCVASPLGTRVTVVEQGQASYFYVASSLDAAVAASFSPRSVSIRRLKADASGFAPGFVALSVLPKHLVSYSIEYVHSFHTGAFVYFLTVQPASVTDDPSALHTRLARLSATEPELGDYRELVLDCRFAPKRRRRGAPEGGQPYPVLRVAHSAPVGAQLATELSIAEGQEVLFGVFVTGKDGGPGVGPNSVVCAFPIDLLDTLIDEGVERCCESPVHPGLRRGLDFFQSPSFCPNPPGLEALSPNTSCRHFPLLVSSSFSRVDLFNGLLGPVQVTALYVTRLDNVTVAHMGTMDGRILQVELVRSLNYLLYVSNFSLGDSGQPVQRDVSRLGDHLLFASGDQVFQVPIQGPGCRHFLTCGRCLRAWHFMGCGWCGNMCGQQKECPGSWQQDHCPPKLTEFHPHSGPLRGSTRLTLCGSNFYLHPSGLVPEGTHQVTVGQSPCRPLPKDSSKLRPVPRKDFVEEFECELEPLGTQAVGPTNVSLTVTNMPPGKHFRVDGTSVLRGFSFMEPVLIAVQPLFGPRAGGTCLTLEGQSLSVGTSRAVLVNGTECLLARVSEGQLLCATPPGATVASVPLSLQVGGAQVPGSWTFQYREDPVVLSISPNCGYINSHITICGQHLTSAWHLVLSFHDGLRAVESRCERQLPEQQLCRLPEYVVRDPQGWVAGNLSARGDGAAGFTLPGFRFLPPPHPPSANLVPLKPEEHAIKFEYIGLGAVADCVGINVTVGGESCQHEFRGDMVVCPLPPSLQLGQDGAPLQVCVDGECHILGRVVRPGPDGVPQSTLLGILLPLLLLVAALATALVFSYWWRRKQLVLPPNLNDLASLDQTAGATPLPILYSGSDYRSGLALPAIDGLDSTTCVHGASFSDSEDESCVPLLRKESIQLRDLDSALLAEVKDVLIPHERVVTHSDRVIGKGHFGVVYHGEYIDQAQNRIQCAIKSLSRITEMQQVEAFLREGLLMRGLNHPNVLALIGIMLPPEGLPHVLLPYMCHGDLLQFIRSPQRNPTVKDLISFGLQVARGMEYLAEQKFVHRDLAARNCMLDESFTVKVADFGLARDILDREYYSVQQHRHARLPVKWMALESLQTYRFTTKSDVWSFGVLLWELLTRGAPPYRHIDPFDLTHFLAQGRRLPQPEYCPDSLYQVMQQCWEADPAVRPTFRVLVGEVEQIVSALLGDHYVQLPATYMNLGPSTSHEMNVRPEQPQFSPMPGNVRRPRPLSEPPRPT
ALK, sequence (Q9UM73 19-1620): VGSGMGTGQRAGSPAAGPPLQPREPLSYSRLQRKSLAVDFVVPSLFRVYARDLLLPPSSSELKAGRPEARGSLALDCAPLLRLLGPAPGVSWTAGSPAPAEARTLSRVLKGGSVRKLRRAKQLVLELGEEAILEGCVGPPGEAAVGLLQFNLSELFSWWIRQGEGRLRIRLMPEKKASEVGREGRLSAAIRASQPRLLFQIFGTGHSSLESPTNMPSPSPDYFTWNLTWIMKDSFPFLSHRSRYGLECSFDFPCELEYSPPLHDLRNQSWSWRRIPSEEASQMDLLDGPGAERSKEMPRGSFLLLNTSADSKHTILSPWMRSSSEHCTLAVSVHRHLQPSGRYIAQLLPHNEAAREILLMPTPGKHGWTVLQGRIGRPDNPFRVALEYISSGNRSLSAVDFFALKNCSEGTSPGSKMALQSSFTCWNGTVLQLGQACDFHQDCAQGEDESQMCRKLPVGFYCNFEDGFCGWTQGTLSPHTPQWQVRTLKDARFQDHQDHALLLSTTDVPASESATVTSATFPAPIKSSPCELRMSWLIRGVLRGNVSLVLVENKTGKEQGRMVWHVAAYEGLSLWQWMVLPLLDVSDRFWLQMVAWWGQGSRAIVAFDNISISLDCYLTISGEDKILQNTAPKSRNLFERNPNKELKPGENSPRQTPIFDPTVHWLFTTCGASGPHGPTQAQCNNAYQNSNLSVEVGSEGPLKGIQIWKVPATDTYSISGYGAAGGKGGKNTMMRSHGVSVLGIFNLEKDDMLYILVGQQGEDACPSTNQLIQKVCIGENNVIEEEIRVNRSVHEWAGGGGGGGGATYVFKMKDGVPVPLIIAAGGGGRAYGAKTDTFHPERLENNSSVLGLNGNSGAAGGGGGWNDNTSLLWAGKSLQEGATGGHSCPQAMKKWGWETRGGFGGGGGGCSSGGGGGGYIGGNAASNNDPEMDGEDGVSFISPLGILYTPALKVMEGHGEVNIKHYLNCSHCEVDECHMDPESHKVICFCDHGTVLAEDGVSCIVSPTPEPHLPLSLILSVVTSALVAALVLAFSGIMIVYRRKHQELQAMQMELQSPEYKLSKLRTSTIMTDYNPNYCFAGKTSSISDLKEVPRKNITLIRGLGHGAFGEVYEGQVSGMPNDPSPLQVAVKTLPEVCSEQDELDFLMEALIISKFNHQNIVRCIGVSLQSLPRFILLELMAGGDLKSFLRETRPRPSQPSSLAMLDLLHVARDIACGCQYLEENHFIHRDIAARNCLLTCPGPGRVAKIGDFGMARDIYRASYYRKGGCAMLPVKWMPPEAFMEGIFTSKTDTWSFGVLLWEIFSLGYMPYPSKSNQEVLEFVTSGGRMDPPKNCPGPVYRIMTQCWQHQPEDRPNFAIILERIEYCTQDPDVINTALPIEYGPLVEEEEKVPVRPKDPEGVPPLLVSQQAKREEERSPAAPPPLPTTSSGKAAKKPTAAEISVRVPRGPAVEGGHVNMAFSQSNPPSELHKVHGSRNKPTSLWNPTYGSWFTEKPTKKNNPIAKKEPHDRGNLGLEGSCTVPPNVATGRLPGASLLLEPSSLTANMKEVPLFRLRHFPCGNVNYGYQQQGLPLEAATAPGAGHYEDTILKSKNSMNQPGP
IGF1R, sequence (P08069 31-1367): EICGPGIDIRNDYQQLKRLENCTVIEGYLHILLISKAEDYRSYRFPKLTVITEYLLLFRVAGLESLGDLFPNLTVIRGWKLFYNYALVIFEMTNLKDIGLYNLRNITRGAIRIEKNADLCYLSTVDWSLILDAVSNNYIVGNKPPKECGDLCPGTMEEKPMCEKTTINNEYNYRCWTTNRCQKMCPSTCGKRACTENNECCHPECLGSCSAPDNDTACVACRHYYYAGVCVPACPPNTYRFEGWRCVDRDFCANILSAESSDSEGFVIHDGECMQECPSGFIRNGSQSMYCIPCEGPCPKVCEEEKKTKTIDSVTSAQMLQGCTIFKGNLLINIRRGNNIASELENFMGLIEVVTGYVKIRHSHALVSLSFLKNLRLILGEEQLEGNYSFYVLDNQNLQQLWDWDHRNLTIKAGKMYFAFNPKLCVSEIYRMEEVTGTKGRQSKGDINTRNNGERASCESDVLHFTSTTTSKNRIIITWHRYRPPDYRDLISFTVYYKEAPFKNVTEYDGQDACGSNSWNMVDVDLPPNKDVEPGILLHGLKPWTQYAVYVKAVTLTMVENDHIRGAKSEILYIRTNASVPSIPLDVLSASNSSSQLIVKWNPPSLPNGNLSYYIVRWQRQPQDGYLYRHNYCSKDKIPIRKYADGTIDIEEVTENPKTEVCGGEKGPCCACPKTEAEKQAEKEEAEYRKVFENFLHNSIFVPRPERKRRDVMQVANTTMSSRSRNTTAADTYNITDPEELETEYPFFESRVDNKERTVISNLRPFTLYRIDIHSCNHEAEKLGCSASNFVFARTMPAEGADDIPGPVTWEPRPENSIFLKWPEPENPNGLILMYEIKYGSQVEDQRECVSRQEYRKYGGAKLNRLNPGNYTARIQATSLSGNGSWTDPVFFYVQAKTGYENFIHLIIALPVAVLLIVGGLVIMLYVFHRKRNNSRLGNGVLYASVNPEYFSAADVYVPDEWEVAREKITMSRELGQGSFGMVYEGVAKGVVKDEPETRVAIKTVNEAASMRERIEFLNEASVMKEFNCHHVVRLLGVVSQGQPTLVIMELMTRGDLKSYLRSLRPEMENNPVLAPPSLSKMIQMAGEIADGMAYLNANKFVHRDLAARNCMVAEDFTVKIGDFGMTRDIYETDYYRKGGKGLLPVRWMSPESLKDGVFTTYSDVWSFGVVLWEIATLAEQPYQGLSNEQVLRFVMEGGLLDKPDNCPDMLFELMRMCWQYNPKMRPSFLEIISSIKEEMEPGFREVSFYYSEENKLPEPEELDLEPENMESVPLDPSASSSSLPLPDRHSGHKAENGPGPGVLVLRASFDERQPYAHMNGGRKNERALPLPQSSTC
SRC, sequence (P12931 whole entry): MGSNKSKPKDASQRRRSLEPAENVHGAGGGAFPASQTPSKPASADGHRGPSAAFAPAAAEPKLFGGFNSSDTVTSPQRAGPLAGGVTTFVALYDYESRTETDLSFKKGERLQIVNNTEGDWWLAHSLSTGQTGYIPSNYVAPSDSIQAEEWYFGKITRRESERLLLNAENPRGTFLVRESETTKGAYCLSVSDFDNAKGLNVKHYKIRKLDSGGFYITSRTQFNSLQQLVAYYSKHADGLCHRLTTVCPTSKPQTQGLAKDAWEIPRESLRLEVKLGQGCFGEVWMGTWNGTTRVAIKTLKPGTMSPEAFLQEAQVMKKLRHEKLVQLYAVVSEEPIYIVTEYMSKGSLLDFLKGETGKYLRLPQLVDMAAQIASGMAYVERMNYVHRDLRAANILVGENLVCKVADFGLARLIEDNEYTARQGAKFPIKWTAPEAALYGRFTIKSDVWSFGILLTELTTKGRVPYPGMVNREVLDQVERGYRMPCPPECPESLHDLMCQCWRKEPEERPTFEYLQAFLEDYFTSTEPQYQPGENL

Row | SMILES | remaining activity at 1 µM (STK17B) | remaining activity at 1 µM (SRC) | remaining activity at 1 µM (CSF1R) | remaining activity at 1 µM (EPHA1) | remaining activity at 1 µM (FYN) | remaining activity at 1 µM (GSK3B) | remaining activity at 1 µM (RON) | remaining activity at 1 µM (ALK) | Tracer bound (ULK1) | Tracer bound (MAPK14) | remaining activity at 1 µM (IGF1R) | IC50 (MOLM-13)
1 | CNC(=O)c1cc(Oc2ccc(NC(=O)Nc3cc(C(C)(C)C)on3)cc2)ccn1 [MA68, reference compound] | 102% | 120% | 27.1% | 37.2% | 114% | 120% | 100% | 109% | 117.4% | 25.9% | 111% | –
2 | Cc1ncsc1-c1ccc([C@H](C)NC(=O)[C@@H]2C[C@@H](O)CN2C(=O)[C@@H](NC(=O)[C@H]2CC[C@H](C(=O)N3CCN(CCNC(=O)c4cc(Oc5ccc(NC(=O)Nc6cc(C(C)(C)C)on6)cc5)ccn4)CC3)CC2)C(C)(C)C)cc1 [MA191, 4-(4-(3-(5-(tert-Butyl)isoxazol-3-yl)ureido)phenoxy)-N-(2-(4-(trans-4-(((S)-1-((2S,4R)-4-hydroxy-2-(((S)-1-(4-(4-methylthiazol-5-yl)phenyl)ethyl)carbamoyl)pyrrolidin-1-yl)-3,3-dimethyl-1-oxobutan-2-yl)carbamoyl)cyclohexanecarbonyl)piperazin-1-yl)ethyl)picolinamide] | 92.4% | 120% | 108% | 120% | 120% | 120% | 98.5% | 105% | – | 70.3% | 107% | –
3 | Cc1ncsc1-c1ccc([C@H](C)NC(=O)[C@@H]2C[C@@H](O)CN2C(=O)[C@@H](NC(=O)CCOCCOCCOCCNC(=O)c2cc(Oc3ccc(NC(=O)Nc4cc(C(C)(C)C)on4)cc3)ccn2)C(C)(C)C)cc1 [MA49, reference compound] | – | – | – | – | – | – | – | – | – | – | – | 4.8 ± 3.7 nM
